Laboratory results as given in patent US5298502A, “Method and composition for photodynamic treatment and detection of tumors” (priority 1991, dated 1994).

Experiments:
[1] = tested on: DBA/2 Ha mice with SMT-F subcutaneous tumors; assay: Proto IX content of tissues of tumor-bearing mice fed the agent (Example 6); assay type: in vivo; conditions: for concentration of Proto IX in tissue, Adrenal / concentration of Proto IX in tissue, Intestine / concentration of Proto IX in tissue, Kidneys / concentration of Proto IX in tissue, Liver / concentration of Proto IX in tissue, Tumor / Proto IX Mean Cps per gram, Intestine: 2000 ppm in feed; for Proto IX Mean Cps per gram, Adrenal / Proto IX Mean Cps per gram, Kidneys / Proto IX Mean Cps per gram, Liver / Proto IX Mean Cps per gram, Tumor / Weight of Tumor as excised: 2000 ppm in feed Days 2-10, sacrificed Day 10 (6j Day 7)
Experimental: In this Example the enzyme-inhibiting agents were added to the feed of tumor-bearing mice; for some of the mice, used as a control, no agent was added to the feed. The mice were then sacrificed and their kidneys, intestines, adrenal glands, liver and tumor were removed and analyzed for their content of Proto IX. The following enzyme-inhibiting agents were employed: [drawing 10]
More particularly, the mice were DBA/2 Ha mice which had been injected with SMT-F subcutaneous tumors on Day 0 in the right shoulder. The mice, individually housed, received untreated Purina Rodent Chow 5001 Mash on Day 1; thereafter on Days 2 through 10 the mice received the same Mash treated with 2000 ppm of the inhibiting agent being tested (or, for the controls, the same untreated Mash). The treatment of the Mash was effected by blending it with a small amount of an acetone solution of the agent to be tested. The mice were then sacrificed on Day 10, except for the mouse treated with the agent designated as 6j; the latter was sacrificed on Day 7. The tissues were refrigerated at 4° C. overnight, then blotted dry, and the fresh weight of each tissue sample was recorded. The tissues were then homogenized in 5 mL, or lo mL in the cases of intestines and liver, of acetone-0.1 N NH4 OH (9:I, v/v). The homogenates were then centrifuged at 1500 g and the supernatants were analyzed on a SPEX FAII2 spectrofluorometer; excitation 400 nm, emission 630 nm wavelengths, the optima for Proto IX. Proto IX accumulation was determined as CPS (fluorescent counts per second emitted) per gram of tissue. The results are tabulated below (results are averages for two mice for each treatment, except for treatments with agents 6f, 6h, 6i and 6j in each of which only one mouse was treated): […]

[2] = tested on: HeLa cells; assay: Proto IX production in HeLa cells, extract of cells alone (Example 7); assay type: cell-based; conditions: Homo sapiens, 100 uM agent, first formula (background-subtracted), read-out: increase in the amount of Proto IX relative to the control
Experimental: In a series of experiments along the lines of Examples 1 and 2, cultures of HeLa cells were incubated in the presence of 100 uM of various treating agents, listed below. The percentage given, next to each treating agent, indicates the increase in the amount of Proto IX produced in the presence of that treating agent relative to the amount produced by the control in the same experiment.
As in Examples 1 and 2, the data for this Example 7 were based on measurements of fluorescence (e.g. in counts per second, "cps"). In this Example, however, the measurements were made on an extract of the cells alone (in contrast to Examples 1 and 2 in which the disrupted cells and culture medium together were extracted), the fluorometric medium was the one described in Example 5 (containing 1% Tween-20, 50 mM Tris-HCl, 1 mM EDTA and 1 mM dithioerythritol, pH 8.5), and a cps measurement of the fluorometric medium per se was also made. In calculating the foregoing data for this Example, the following formula was used to calculate the percentage increases: [formula] where Ca is the counts per second for the sample resulting from treatment with the agent, Cc is the counts per second for the control sample, and Cm is the counts per second for the fluorometric medium per se (i.e. the background fluoroescence). On reviewing the data it was observed that Cc -Cm for this set of experiments was […] compared to Cm; for instance, individual measured values were 49025 and 52069 for Cc and 4295 for Cm. […] Accordingly, the data were recalculated using the formula: [formula] with the following results: 6a 336%; 5b 148%; 6c 154%; 6d 510%; 6e 320%; 6f 280%; 6g 329%; 6h 178%; 6i 171%; 6j 185%; 7a 118%; 7b 142%; 7c 103%; 7d 128%; 7e 173%; 7f 118%; 7q 155%; 7h 118%.

[3] = tested on: mosquito larvae; assay: Insecticidal test against mosquito larvae; conditions: in vivo
[4] = tested on: chondrosarcoma; assay: Photodynamic treatment of chondrosarcoma in rats fed the agent (Example 9); assay type: in vivo, Sprague-Dawley rats; conditions: three rats, 2000 ppm in feed for 6 days, 630 nm light 270 J/cm^2
Experimental: Specifically, three Sprague-Dawley rats of average weight 120 g were placed on a diet of feed containing 2000 ppm of the agent for a period of 6 days. On day 3, chondrosarcoma was implanted into the right hind limb of each rat by injecting 0.3 mL of a suspension of the tumor cells (about one million tumor cells). On day 6 the right hind limb of each rat was shaven and depilated, the size of each tumor was measured, and the tumor area and surrounding skin were then exposed to non-thermal doses of 630 nm light for a total of 270 J/cm^2.
In another set of experiments, 20 of the rats were placed on the same diet as above (i.e. feed containing 2000 ppm of agent), provided ad libitum, for 10 days before the treatment with the light, and the injection of the tumor cell suspension was made after the animals had been on the diet for 7 days. Such an injection causes the formation of a tumor having a well defined vascular network within 1 to 2 days. At the time of the treatment with light the tumors had diameters of 5-8 mm and were free of evident necrosis.

[5] = tested on: HeLa cells; assay: Proto IX in HeLa cells and culture medium, cell growth observations (Example 8); assay type: cell-based, human; conditions: 100 μM agent
Experimental: In a manner similar to Examples 1 and 2, cultures of HeLa cells were incubated in the presence of 100 μM of various treating agents, listed below. The agent was added in dilute solution in dimethylsulfoxide (DMSO),and the controls contained 0.2% DMSO v/v. After such incubation the culture medium was poured off, removing it from the cells, the cells were loosened from the culture flasks by addition of 0.25% W/v trypsin Which remained in contact With the cells for 20 minutes at 37° C., after which a fluorometric medium was added to the flask. The fluorometric medium was the same as that described in Example 7 except that its pH was 6.5; this medium also acted as an extractant. The resulting extract was analyzed for proto IX content. The separated culture medium was also analyzed fluorometrically for Proto IX content. The pairs of percentages given, next to each treating agent, indicate the amount of Proto IX produced in the presence of that treating agent relative to the amount produced by the control in the same experiment; the first number of each pair relates to the concentration of Proto IX in the culture medium and the second number relates to the concentration in the cells. [drawing 12]

[6] = samples diluted with 3 parts basic acetone to one part sample

Row | Compound | concentration of Proto IX in tissue, Adrenal [1] | concentration of Proto IX in tissue, Intestine [1] | concentration of Proto IX in tissue, Kidneys [1] | concentration of Proto IX in tissue, Liver [1] | concentration of Proto IX in tissue, Tumor [1] | Proto IX Mean Cps per gram, Adrenal [1] [Cps per gram × 10^3] | Proto IX Mean Cps per gram, Kidneys [1] [Cps per gram × 10^3] | Proto IX Mean Cps per gram, Liver [1] [Cps per gram × 10^3] | Proto IX Mean Cps per gram, Tumor [1] [Cps per gram × 10^3] | Weight of Tumor as excised [1] [mg] | Proto IX Mean Cps per gram, Intestine [1, 6] [Cps per gram × 10^3] | activation at 100 µM [2] [%] | activity against mosquito larvae [3] | Proto IX Mean Cps per gram, Intestine ([1]; undiluted samples (6j Day 7)) [Cps per gram × 10^3] | tumor regression on the day after light treatment [4] | activity in the test in Example 8 (Proto IX production) [5]
1 | COC(=O)c1cc(Oc2ccc(C(F)(F)F)cc2Cl)ccc1[N+](=O)[O-] [Agent 6b] | 23 ug of Proto IX per gram of tis | 51 ug of Proto IX per gram of tis | 22 ug of Proto IX per gram of tis | 12 ug of Proto IX per gram of tis | 14 ug of Proto IX per gram of tis | 2529 | 2441 | 1261 | 1520 | 90 | 5577 | 366 |  |  |  | 
2 | CCOC(=O)C(Cl)Cc1cc(-n2nc(C)n(C(F)F)c2=O)c(F)cc1Cl (centres unmarked) |  |  |  |  |  |  |  |  |  |  |  |  | active |  |  | 
3 | C#CCN1C(=O)COc2cc(F)c(-n3nc4c(c3Cl)CCCC4)cc21 [Agent 6i] | 337 ug of Proto IX per gram of tis | 32 ug of Proto IX per gram of tis | 37 ug of Proto IX per gram of tis | 14 ug of Proto IX per gram of tis | 9 ug of Proto IX per gram of tis | 36940 | 4014 | 1510 | 932 | 20 |  | 544 |  | 3454 |  | 
4 | CCCn1c(=O)ccc2cc(F)c(-n3nc(C)n(C(F)F)c3=O)cc21 [Agent 6f] | 51 ug of Proto IX per gram of tis | 11 ug of Proto IX per gram of tis | 6 ug of Proto IX per gram of tis | 11 ug of Proto IX per gram of tis | 4 ug of Proto IX per gram of tis | 5611 | 661 | 1170 | 449 | 69 |  | 280 |  | 1157 |  | 
5 | CC(C)Oc1cc(-n2c(=O)n3n(c2=O)CCCC3)c(F)cc1Cl [Agent 6h] | 21 ug of Proto IX per gram of tis | 5 ug of Proto IX per gram of tis | 5 ug of Proto IX per gram of tis | 8 ug of Proto IX per gram of tis | 3 ug of Proto IX per gram of tis | 2259 | 585 | 914 | 298 | 192 |  | 431 |  | 584 |  | 
6 | C#CCN1C(=O)C(F)Oc2cc(F)c(-n3nc(C)n(C(F)F)c3=O)cc21 (centres unmarked) [Agent 6g] | 18 ug of Proto IX per gram of tis | 4 ug of Proto IX per gram of tis | 6 ug of Proto IX per gram of tis | 7 ug of Proto IX per gram of tis | 2 ug of Proto IX per gram of tis | 1984 | 606 | 803 | 166 | 250 |  | 326 |  | 466 |  | 
7 | CS(=O)(=O)NC(=O)c1cc(Oc2ccc(C(F)(F)F)cc2Cl)ccc1[N+](=O)[O-] [Compound 8c] |  |  |  |  |  |  |  |  |  |  |  |  |  |  | did not produce any regression of the tumors | much less active than compound 6c
8 | C#CCN1C(=O)COc2cc(F)c(N=c3sc(=S)n4n3CCCC4)cc21 [Agent 6j] | 4 ug of Proto IX per gram of tis | 5 ug of Proto IX per gram of tis | 3 ug of Proto IX per gram of tis | 5 ug of Proto IX per gram of tis | 11 ug of Proto IX per gram of tis | 491 | 315 | 538 | 1251 | 11 |  | 469 |  | 572 |  | 
9 | CCS(=O)(=O)Nc1cc(-n2nnn(CCCF)c2=O)c(F)cc1Cl [Compound 8h] |  |  |  |  |  |  |  |  |  |  |  |  | active |  |  | 
10 | CCOC(=O)C(C)Oc1ccc(Oc2cc(-n3nc(C)n(C(F)F)c3=O)c(F)cc2Cl)cc1 (centres unmarked) [Agent 6a] | 60 ug of Proto IX per gram of tis | 54 ug of Proto IX per gram of tis | 99 ug of Proto IX per gram of tis | 39 ug of Proto IX per gram of tis | 11 ug of Proto IX per gram of tis | 6572 | 10817 | 4291 | 1203 | 143 | 5870 | 337 | active |  |  | 
